Measurements published in patent US10538528B2, “5H-pyrrolo[2,3-D]pyrimidin-6(7H)-one derivative” (Taiho Pharmaceutical Co., Ltd., priority 2016, dated 2020).

Legend:
[1] = tested on: RKO cells (human colon cancer cell lines); assay: Cell growth inhibition study using RKO cells (CellTiter-Glo); format: cell-based; details: 72 h, 3 days
Method: The in vitro cell growth inhibition study using RKO cells (human colon cancer cell lines) was conducted as described below.
RKO cells (ATCC, Cat#: CRL-2577) cultured in a MEM medium (GIBCO, Cat#:10370-088) supplemented with 10% FBS, 1 mM L-glutamine (GIBCO, Cat#:25030), and 1 mM sodium pyruvate (GIBCO, Cat#:11360) were seeded in a 96-well flat bottom microplate (COSTAR, Cat#:3904) at 2×10^3 cells (150 μl) and cultured in an incubator containing 5% CO2 at 37° C. for 1 day. The compound according to the present invention subjected to serial dilution with dimethyl sulfoxide or dimethyl sulfoxide alone was added to a MEM medium containing 10% FBS, 1 mM L-glutamine, and 1 mM sodium pyruvate. The resultant medium containing the compound or dimethyl sulfoxide alone was added to the RKO cells in the culture plate by 50 μl/well at the final concentration of the compound to 10, 3, 1, 0.3, 0.1, 0.03, 0.01, 0.003, and 0 μM, respectively. Another RKO cell culture plate separately prepared was allowed to stand at room temperature for 30 minutes, then 100 μl of the medium was removed, and added 50 μl of CellTiter-Glo® 2.0 Assay (Promega, Cat#:G9242) to each well. After the plates were placed in the dark for 10 minutes, the luminescence level derived from viable cells in each well was measured by the Multimode Plate Reader (PerkinElmer, EnSpire). The cells treated with the compound or dimethyl sulfoxide alone were cultured at 37° C. in an incubator containing 5% CO2 for an additional 3 days. After incubation, the culture plate was placed at room temperature for 30 minutes, and 150 μl of the supernatant was removed from each well to adjust the amount of the remaining cell culture solution to 50 μl each. To 50 μl of the remaining cell culture solution, the equivalent amount of CellTiter-Glo® 2.0 Assay was added. After the cell culture plate was placed in the dark for 10 minutes, the luminescence level derived from viable cells in each well was assayed with the use of the Multimode Plate Reader. The cell growth rate was calculated by the formulae shown below and the concentration at which the cell growth rate became 50%; i.e., the concentration of the compound according to the present invention at which cell growth would be inhibited by 50% was determined (GI50 (nM)). Cell growth rate (%)=(T−C0)/(C−C0)×100, provided that T is equal to or greater than C0(T≥C0) Cell growth rate (%)=(T−C0)/C0×100, provided that T is less than C0(T<C0) C0: Luminescence level in each well when the compound is added (count per second) C: Luminescence level in each well when dimethyl sulfoxide is added alone (count per second) T: Luminescence level in each well when the test compound is added (count per second)
As control compounds, conventional Comparative Example A (WO 2010/056563 (Example 31)) and Comparative Example B having inhibitory activity against Akt were used.
The GI50 levels of representative compounds according to the present invention and reference compounds in RKO cells were evaluated, and the results are shown in Table 5.

[2] = tested on: HEC-6 cells (endometrial cancer cell lines); assay: Cell growth suppression test on HEC-6 cells (CellTiter-Glo); format: cell-based; details: 72 h, read-out: Cell growth inhibition GI50, heading: Cell growth inhibition GI50, 3 days, table head prints μM, method says GI50 (nM)
Method: The in vitro cell growth suppression test on HEC-6 cells (endometrial cancer cell lines) was performed under the conditions described below.
HEC-6 cells (Health Science Research Resources Bank, Cell Number: JCRB1118) cultured in a MEM medium containing 15% FBS (GIBCO, Cat#: 10370) were seeded on a 384-well flat bottom microplate (CORNING, Cat#: 3571) at 500 cells/well (20 μl) and cultured in an incubator containing 5% carbon dioxide at 37° C. for 1 day. The compound according to the present invention subjected to serial dilution with dimethyl sulfoxide or dimethyl sulfoxide alone was added to a MEM medium containing 15% FBS. […] Thereafter, the luminescence level derived from viable cells in each well was assayed with the use of the Multimode Plate Reader (PerkinElmer, EnVision). […] Thereafter, the luminescence level derived from viable cells in each well was assayed with the use of the Multimode Plate Reader. […] Cell growth rate (%)=(T−C0)/(C−C0)×100, provided that T is equal to or greater than C0(T≥C0) Cell growth rate (%)=(T−C0)/C0×100, provided that T is less than C0(T<C0) C0: Luminescence level in each well when the compound is added (count per second) C: Luminescence level in each well when dimethyl sulfoxide is added alone (count per second) T: Luminescence level in each well when the test compound is added (count per second) […]

human Akt1 = human Akt1 (Homo sapiens (Human), UniProt P31749); assay: Inhibitory effects on Akt1 kinase activity (TR-FRET, biotinylated Crosstide); format: biochemical; details: Akt1, ATP 150 μM, pre-incubation 120 minutes at 25° C.; read-out: AKT inhibitory activity IC50
human Akt1, sequence (P31749 whole entry): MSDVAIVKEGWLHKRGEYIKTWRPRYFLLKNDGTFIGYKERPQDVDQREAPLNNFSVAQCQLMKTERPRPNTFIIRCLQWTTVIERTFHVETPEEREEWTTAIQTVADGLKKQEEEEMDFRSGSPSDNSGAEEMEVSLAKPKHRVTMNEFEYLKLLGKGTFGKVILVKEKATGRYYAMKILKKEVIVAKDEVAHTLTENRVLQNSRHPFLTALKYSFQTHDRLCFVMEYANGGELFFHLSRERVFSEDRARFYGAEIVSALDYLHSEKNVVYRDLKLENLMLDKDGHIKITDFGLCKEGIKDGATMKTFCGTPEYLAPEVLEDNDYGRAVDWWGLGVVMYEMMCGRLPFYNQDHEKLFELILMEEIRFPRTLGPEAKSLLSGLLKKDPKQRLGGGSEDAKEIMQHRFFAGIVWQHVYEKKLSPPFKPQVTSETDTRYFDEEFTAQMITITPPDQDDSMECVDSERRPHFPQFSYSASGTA
Procedure, shortened: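 Middle T-tagged human Akt1 from Sf9 cells, PDK1-activated, pre-incubated with compound 120 min at 25 °C (Tris pH 7.5); then 500 nM biotin-Crosstide, 10 mM MgCl2, 150 μM ATP for 60 min at 25 °C. Eu-anti-phospho-Crosstide/APC-SA TR-FRET 665/620 ratio; IC50 as 50% phosphorylation inhibition.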

SMILES | GI50 [1] [nM] | GI50 [2] [µM] | IC50 (human Akt1) [nM]
CN(C)CCn1cc(-c2ccc(F)c(C(F)(F)F)c2)nc1C1CCN(c2ncnc3c2C(C)(C)C(=O)N3)CC1 [Comparative Example A, reference compound] | 1050 | 1.04 | –
CC(C)(C)NCCNc1cc(-c2cncc(F)c2)nc(C2CCN(c3ncnc4c3C(C)(C)C(=O)N4)CC2)c1 [Comparative Example B, 4-(4-(4-((2-(Tert-butylamino)ethyl)amino)-5′-fluoro-[2,3′-bipyridin]-6-yl)piperidin-1-yl)-5,5-dimethyl-5H-pyrrolo[2,3-d]pyrimidin-6(7H)-one, reference compound] | 2640 | 2.92 | 657
